Measurements as given in ChEMBL document CHEMBL4373715, “Discovery and Biological Evaluations of Halogenated 2,4-Diphenyl Indeno[1,2-b]pyridinol Derivatives as Potent Topoisomerase IIα-Targeted Chemotherapeutic Agents for Breast Cancer” (J Med Chem, 2019).

What was measured:
HCT-15 = assay: Antiproliferative activity against human HCT15 cells measured after 72 hrs by EZ-Cytox assay; format: functional, cell-based; settings: HCT-15, 72 h
[1] = target: DNA topoisomerase 2-alpha (Homo sapiens) (UniProt P11388); assay: Inhibition of recombinant human topoisomerase 2alpha-mediated relaxation of supercoiled pBR322 DNA at 100 uM measured after 30 mins by ethidium bromide staining based agarose gel electrophoresis relative to control
T47D = assay: Antiproliferative activity against human T47D cells measured after 72 hrs by EZ-Cytox assay; format: functional, cell-based
DU-145 = assay: Antiproliferative activity against human DU145 cells measured after 72 hrs by EZ-Cytox assay; format: functional, cell-based; settings: DU-145, 72 h
HeLa = assay: Antiproliferative activity against human HeLa cells measured after 72 hrs by EZ-Cytox assay; format: functional, cell-based
[2] = target: DNA topoisomerase 2-alpha (Homo sapiens) (UniProt P11388); assay: Inhibition of recombinant human topoisomerase 2alpha-mediated relaxation of supercoiled pBR322 DNA at 20 uM measured after 30 mins by ethidium bromide staining based agarose gel electrophoresis relative to control
[3] = target: T1, DNA topoisomerase 1 (Homo sapiens) (UniProt P11387); assay: Inhibition of recombinant human topoisomerase 1-mediated relaxation of supercoiled pBR322 DNA at 100 uM measured after 30 mins by ethidium bromide staining based agarose gel electrophoresis relative to control
T1 sequence (whole entry): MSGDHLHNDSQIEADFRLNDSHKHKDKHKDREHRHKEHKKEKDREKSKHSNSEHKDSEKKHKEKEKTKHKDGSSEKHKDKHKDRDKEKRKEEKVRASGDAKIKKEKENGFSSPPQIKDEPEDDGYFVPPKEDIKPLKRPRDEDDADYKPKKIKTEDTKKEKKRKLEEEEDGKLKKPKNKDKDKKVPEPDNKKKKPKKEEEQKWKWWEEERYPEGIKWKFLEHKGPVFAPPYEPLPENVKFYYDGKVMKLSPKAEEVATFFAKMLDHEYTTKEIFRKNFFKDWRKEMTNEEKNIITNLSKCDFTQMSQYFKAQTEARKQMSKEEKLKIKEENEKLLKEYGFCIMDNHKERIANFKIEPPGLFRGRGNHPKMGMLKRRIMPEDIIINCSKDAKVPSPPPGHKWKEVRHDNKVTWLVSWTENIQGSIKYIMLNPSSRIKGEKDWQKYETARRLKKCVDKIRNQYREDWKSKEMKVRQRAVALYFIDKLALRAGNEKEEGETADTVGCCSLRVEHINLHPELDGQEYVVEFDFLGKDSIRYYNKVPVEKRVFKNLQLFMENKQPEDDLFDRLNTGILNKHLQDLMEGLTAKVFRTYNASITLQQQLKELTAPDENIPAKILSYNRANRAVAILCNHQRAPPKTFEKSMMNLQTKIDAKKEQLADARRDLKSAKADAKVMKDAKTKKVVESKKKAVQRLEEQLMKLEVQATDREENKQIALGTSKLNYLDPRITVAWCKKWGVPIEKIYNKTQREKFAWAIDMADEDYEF

Chain of DNA topoisomerase 2-alpha (Homo sapiens) (P11388 whole entry): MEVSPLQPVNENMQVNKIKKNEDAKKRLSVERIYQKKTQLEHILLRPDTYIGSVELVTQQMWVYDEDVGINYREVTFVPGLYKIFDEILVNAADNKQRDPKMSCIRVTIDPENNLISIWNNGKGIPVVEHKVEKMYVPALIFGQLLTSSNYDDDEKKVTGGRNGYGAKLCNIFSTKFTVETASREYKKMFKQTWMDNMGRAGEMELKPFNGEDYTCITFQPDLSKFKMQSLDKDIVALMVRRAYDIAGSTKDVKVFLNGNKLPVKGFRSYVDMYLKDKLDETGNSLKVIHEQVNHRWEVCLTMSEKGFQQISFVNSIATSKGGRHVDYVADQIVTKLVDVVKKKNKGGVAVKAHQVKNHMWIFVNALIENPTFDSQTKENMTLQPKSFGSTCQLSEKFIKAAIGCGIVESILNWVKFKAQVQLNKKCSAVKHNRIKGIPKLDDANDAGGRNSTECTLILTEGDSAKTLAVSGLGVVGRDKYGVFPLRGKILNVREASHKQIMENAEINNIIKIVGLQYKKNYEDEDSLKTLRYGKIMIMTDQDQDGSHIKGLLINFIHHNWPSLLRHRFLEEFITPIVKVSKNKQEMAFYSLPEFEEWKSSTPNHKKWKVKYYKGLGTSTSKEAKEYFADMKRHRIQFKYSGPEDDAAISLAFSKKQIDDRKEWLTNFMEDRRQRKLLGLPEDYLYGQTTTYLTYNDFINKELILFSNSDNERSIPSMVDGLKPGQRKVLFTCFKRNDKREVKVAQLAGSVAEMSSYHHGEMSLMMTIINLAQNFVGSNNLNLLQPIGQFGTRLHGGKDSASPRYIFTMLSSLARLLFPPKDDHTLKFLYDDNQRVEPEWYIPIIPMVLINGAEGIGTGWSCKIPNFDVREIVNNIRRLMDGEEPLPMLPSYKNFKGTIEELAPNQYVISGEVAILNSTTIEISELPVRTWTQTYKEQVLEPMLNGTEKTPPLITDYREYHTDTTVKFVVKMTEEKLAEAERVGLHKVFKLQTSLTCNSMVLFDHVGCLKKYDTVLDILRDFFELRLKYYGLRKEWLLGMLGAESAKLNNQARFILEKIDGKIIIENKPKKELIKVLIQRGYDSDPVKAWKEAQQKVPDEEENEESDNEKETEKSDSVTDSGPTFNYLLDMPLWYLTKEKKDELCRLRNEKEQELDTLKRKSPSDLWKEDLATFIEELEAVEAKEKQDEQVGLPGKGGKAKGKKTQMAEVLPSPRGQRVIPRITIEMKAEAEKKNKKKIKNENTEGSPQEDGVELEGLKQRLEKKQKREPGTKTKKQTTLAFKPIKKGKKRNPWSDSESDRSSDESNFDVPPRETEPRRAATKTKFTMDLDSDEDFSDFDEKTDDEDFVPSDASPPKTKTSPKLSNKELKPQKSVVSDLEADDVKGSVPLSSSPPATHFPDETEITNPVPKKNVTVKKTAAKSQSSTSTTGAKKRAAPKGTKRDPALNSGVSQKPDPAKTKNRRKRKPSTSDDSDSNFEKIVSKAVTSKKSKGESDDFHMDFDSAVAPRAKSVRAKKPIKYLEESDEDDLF

Row | SMILES | IC50 (HCT-15) | inhibition [1] | IC50 (T47D) | IC50 (DU-145) | IC50 (HeLa) | inhibition [2] | inhibition [3]
1 | Oc1cccc(-c2cc(-c3cccc(Cl)c3)c3c(n2)-c2cccc(O)c2C3)c1 | 4790 nM | 64.6% | 33100 nM | 21300 nM | 35500 nM | 2.3% | 7.4%
2 | Oc1ccc(-c2cc(-c3ccccc3Cl)c3c(n2)-c2c(O)cccc2C3)cc1 | 1050 nM | 66.9% | 960 nM | 860 nM | 2790 nM | 0.8% | 10.3%
3 | Oc1ccc2c(c1)-c1nc(-c3cccc(Cl)c3)cc(-c3ccccc3O)c1C2 | 1760 nM | 87.9% | 1160 nM | 320 nM | 2770 nM | 10.8% | 22.9%
4 | Oc1cccc(-c2cc(-c3ccccc3)nc3c2Cc2c(O)cccc2-3)c1 | 2520 nM | 95.4% | 2890 nM | 190 nM | 6740 nM | 0% | 4.6%
5 | Oc1cccc(-c2cc(-c3ccccc3Cl)nc3c2Cc2cccc(O)c2-3)c1 | 3820 nM | 89.6% | 120 nM | 240 nM | 5250 nM | 10.9% | 6.3%
6 | Oc1ccc(-c2cc(-c3ccccc3Cl)c3c(n2)-c2cc(O)ccc2C3)cc1 | 2910 nM | 74.8% | 1640 nM | 4650 nM | 6500 nM | 2% | 4%
7 | Oc1cccc(-c2cc(-c3cccc(Cl)c3)c3c(n2)-c2cc(O)ccc2C3)c1 | 6600 nM | 76.3% | 7200 nM | 3220 nM | 6240 nM | 3.5% | 11.6%
8 | Oc1cccc2c1-c1nc(-c3ccccc3)cc(-c3ccccc3)c1C2 | 2070 nM | 57.5% | 740 nM | 1400 nM | 3080 nM | 0% | 0%
9 | Oc1ccc2c(c1)Cc1c(-c3cccc(Cl)c3)cc(-c3ccccc3O)nc1-2 | > 50000 nM | 74.3% | > 50000 nM | > 50000 nM | > 50000 nM | 3.4% | 1.6%
10 | Oc1cccc(-c2cc(-c3ccc(Cl)cc3)nc3c2Cc2cc(O)ccc2-3)c1 | 850 nM | 95% | 1500 nM | 1280 nM | 1090 nM | 11.2% | 0%
11 | Oc1ccc2c(c1)-c1nc(-c3ccccc3)cc(-c3ccccc3O)c1C2 | 3010 nM | 97.4% | 2330 nM | 150 nM | 3740 nM | 0% | 0%
12 | Oc1ccccc1-c1cc(-c2ccc(F)cc2)nc2c1Cc1c(O)cccc1-2 | 4310 nM | 67% | 610 nM | 2360 nM | 32000 nM | 0% | 0%
13 | Oc1ccc2c(c1)-c1nc(-c3ccccc3O)cc(-c3cccc(Cl)c3)c1C2 | 29800 nM | 67.2% | 7690 nM | 37100 nM | 20000 nM | 4% | 1.9%
14 | Oc1ccc(-c2cc(-c3ccc(Cl)cc3)c3c(n2)-c2c(O)cccc2C3)cc1 | > 50000 nM | 96.8% | > 50000 nM | > 50000 nM | > 50000 nM | 9.3% | 0%
15 | Oc1cccc(-c2cc(-c3ccc(Cl)cc3)c3c(n2)-c2cccc(O)c2C3)c1 | 2580 nM | 86.3% | 2110 nM | 3940 nM | 4630 nM | 4.4% | 0%
16 | Oc1ccc(-c2cc(-c3ccc(Cl)cc3)c3c(n2)-c2cccc(O)c2C3)cc1 | 9100 nM | 97% | 12800 nM | 1810 nM | 18300 nM | 7.5% | 1.3%
17 | Oc1ccccc1-c1cc(-c2ccc(Cl)cc2)nc2c1Cc1c(O)cccc1-2 | 2310 nM | 80.3% | 1250 nM | 610 nM | 1960 nM | 7% | 14.5%

Row | SMILES | IC50 (HCT-15) | inhibition [1] | IC50 (T47D) | IC50 (DU-145) | IC50 (HeLa) | inhibition [2] | inhibition [3]
18 | Oc1ccccc1-c1cc(-c2ccc(Cl)cc2)c2c(n1)-c1cccc(O)c1C2 | > 50000 nM | 71.6% | > 50000 nM | 12800 nM | > 50000 nM | 1.5% | 8.4%
19 | Oc1ccccc1-c1cc(-c2cccc(Cl)c2)c2c(n1)-c1c(O)cccc1C2 | 2460 nM | 74.5% | 1970 nM | 2820 nM | 14300 nM | 2.4% | 0%
20 | Oc1ccc(-c2cc(-c3cccc(Cl)c3)c3c(n2)-c2cc(O)ccc2C3)cc1 | 7590 nM | 73.6% | 2760 nM | 2100 nM | 8060 nM | 1.2% | 8.8%
21 | Oc1cccc(-c2cc(-c3ccc(Cl)cc3)c3c(n2)-c2cc(O)ccc2C3)c1 | > 50000 nM | 80.4% | > 50000 nM | 32200 nM | > 50000 nM | 12.4% | 7.3%
22 | Oc1cccc(-c2cc(-c3cccc(C(F)(F)F)c3)nc3c2Cc2cc(O)ccc2-3)c1 | 2220 nM | 85.2% | 1330 nM | 1420 nM | 2030 nM | 29% | 10.2%
23 | Oc1ccc(-c2cc(-c3cccc(Cl)c3)nc3c2Cc2cc(O)ccc2-3)cc1 | 750 nM | 100% | 1200 nM | 1200 nM | 1170 nM | 31.9% | 0%
24 | Oc1ccc2c(c1)Cc1c(-c3ccccc3O)cc(-c3ccccc3Cl)nc1-2 | 2340 nM | 70.5% | 2860 nM | 1510 nM | 840 nM | 8.2% | 11.7%
25 | Oc1ccccc1-c1cc(-c2ccc(C(F)(F)F)cc2)nc2c1Cc1c(O)cccc1-2 | 4540 nM | 98.9% | 1330 nM | 3460 nM | 6140 nM | 2.4% | 0%
26 | Oc1ccc(-c2cc(-c3cccc(F)c3)nc3c2Cc2cccc(O)c2-3)cc1 | > 50000 nM | 67% | 750 nM | 5780 nM | 7200 nM | 3.9% | 1.1%
27 | Oc1ccc2c(c1)Cc1c(-c3ccccc3O)cc(-c3ccc(C(F)(F)F)cc3)nc1-2 | 4330 nM | 99.9% | 830 nM | 2090 nM | 7870 nM | 11.9% | 0%
28 | Oc1ccc(-c2cc(-c3ccc(C(F)(F)F)cc3)nc3c2Cc2cccc(O)c2-3)cc1 | > 50000 nM | 82.3% | > 50000 nM | 13200 nM | > 50000 nM | 0% | 18.5%
29 | Oc1ccc(-c2cc(-c3ccccc3C(F)(F)F)nc3c2Cc2ccc(O)cc2-3)cc1 | 1320 nM | 81% | 1470 nM | 2780 nM | 1520 nM | 1.2% | 6.7%
30 | Oc1cccc(-c2cc(-c3cccc(C(F)(F)F)c3)nc3c2Cc2ccc(O)cc2-3)c1 | 8610 nM | 90.7% | 1330 nM | 1540 nM | 4700 nM | 10.5% | 5.2%
31 | Oc1ccc(-c2cc(-c3ccc(F)cc3)nc3c2Cc2ccc(O)cc2-3)cc1 | 2540 nM | 47.6% | 1140 nM | 2340 nM | 2250 nM | 1.4% | 0.9%
32 | Oc1ccccc1-c1cc(-c2ccccc2C(F)(F)F)nc2c1Cc1cccc(O)c1-2 | 1640 nM | 84.8% | 750 nM | 2000 nM | 1990 nM | 4% | 0%
33 | Oc1ccc(-c2cc(-c3ccccc3C(F)(F)F)nc3c2Cc2c(O)cccc2-3)cc1 | 3820 nM | 30.1% | 2660 nM | 5340 nM | > 50000 nM | 0.6% | 7.1%
